# Reference: patent publication US9295253B2, “Use of abscisic acid on ornamental plants” (Valent BioSciences Corporation, priority 2007, dated 2016)
# What was measured:
# [1] = tested on: excised Coleus leaves; conditions: applied through the petiole of excised Coleus leaves, compared to excised leaves standing in water; cited from earlier work
# [2] = tested on: potted Poinsettia plants; conditions: foliar application; cited from earlier work
# [3] = tested on: Celosia; assay: Drought tolerance and side effects after ABA drench, irrigation withheld; format: in vivo; conditions: drenched with 250 ppm ABA, greenhouse, no irrigation
# Excerpt: (§1) Many different commercial ornamental crops were obtained from local retailers, or from wholesale nurseries, and transported to a greenhouse for testing. Plants were watered to saturation and allowed to stand and drain for about one hour. Plants were selected for uniformity based on leaf area and arranged in a randomized complete block design, or a completely randomized design, on the greenhouse bench. The plants were sprayed or drenched with water or treatment solution equaling about 5-10% of the pot volume. The plants were held without irrigation until all the plants wilted to a point when they were determined to be unmarketable. The plants were rated daily for the extent of wilting on a scale from 1 for no wilting to 4 for complete wilting. A rating of 2.5 was the point at which a plant was determined to be unmarketable and the previous day was recorded as the marketable life of that plant in days. The plants were rated for the extent of lower leaf yellowing or leaf or flower abscission on a scale from 1 for no yellowing or abscission to 4 for complete yellowing or abscission. A rating of 2.5 was the point at which a plant was determined to be unmarketable.
# (§2) Plants were individually rated on a daily basis for degree of wilting and other undesirable characteristics like leaf yellowing.
# [4] = tested on: Cuphea; assay: as above; format: in vivo; conditions: drenched with 250 ppm ABA, greenhouse, no irrigation
# Excerpt: as §1, §2
# [5] = tested on: Snapdragon; assay: as above; format: in vivo; conditions: drenched with 250 ppm ABA, greenhouse, no irrigation
# Excerpt: as §1, §2
# [6] = tested on: Cosmos; assay: as above; format: in vivo; conditions: drenched with 250 ppm ABA, greenhouse, no irrigation
# Excerpt: as §1, §2
# [7] = tested on: Hydrangea; assay: as above; format: in vivo; conditions: drenched with 250 ppm ABA, greenhouse, no irrigation
# Excerpt: as §1, §2
# [8] = tested on: Salvia; assay: as above; format: in vivo; conditions: drenched with 250 ppm ABA, greenhouse, no irrigation
# Excerpt: as §1, §2
# [9] = tested on: Petunia; assay: as above; format: in vivo; conditions: drenched with 250 ppm ABA, greenhouse, no irrigation
# Excerpt: as §1, §2
# [10] = tested on: Agapanthus; assay: as above; format: in vivo; conditions: drenched with 250 ppm ABA, greenhouse, no irrigation
# Excerpt: as §1, §2
# [11] = tested on: Gazania; assay: as above; format: in vivo; conditions: drenched with 250 ppm ABA, greenhouse, no irrigation
# Excerpt: as §1, §2
# [12] = tested on: Lobelia; assay: as above; format: in vivo; conditions: drenched with 250 ppm ABA, greenhouse, no irrigation
# Excerpt: as §1, §2
# [13] = tested on: Pentas; assay: as above; format: in vivo; conditions: drenched with 250 ppm ABA, greenhouse, no irrigation
# Excerpt: as §1, §2
# [14] = tested on: Marigold; assay: as above; format: in vivo; conditions: drenched with 250 ppm ABA, greenhouse, no irrigation
# Excerpt: as §1, §2
# [15] = tested on: Coleus; assay: as above; format: in vivo; conditions: drenched with 250 ppm ABA, greenhouse, no irrigation
# Excerpt: as §1, §2
# [16] = tested on: Poinsettia; assay: as above; format: in vivo; conditions: drenched with 250 ppm ABA, greenhouse, no irrigation
# Excerpt: as §1, §2
# [17] = tested on: New Guinea Impatiens; assay: as above; format: in vivo
# Excerpt: as §1, §2
# [18] = tested on: Dianthus; assay: as above; format: in vivo; conditions: drenched with 250 ppm ABA, greenhouse, no irrigation
# Excerpt: as §1, §2
# [19] = tested on: Impatiens; assay: as above; format: in vivo; conditions: drenched with 250 ppm ABA, greenhouse, no irrigation
# Excerpt: as §1, §2
# [20] = tested on: Chrysanthemum; assay: as above; format: in vivo; conditions: drenched with 250 ppm ABA, greenhouse, no irrigation
# Excerpt: as §1, §2
# [21] = tested on: Pansy; assay: as above; format: in vivo
# Excerpt: as §1, §2
# [22] = tested on: Calibrachoa; assay: as above; format: in vivo; conditions: drenched with 250 ppm ABA, greenhouse, no irrigation
# Excerpt: as §1, §2
# [23] = tested on: Vinca; assay: as above; format: in vivo
# Excerpt: as §1, §2
# [24] = tested on: Lantana; assay: as above; format: in vivo; conditions: drenched with 250 ppm ABA, greenhouse, no irrigation
# Excerpt: as §1, §2
# [25] = tested on: Euryops; assay: as above; format: in vivo; conditions: drenched with 250 ppm ABA, greenhouse, no irrigation
# Excerpt: as §1, §2
# [26] = tested on: Rose; assay: as above; format: in vivo; conditions: drenched with 250 ppm ABA, greenhouse, no irrigation
# Excerpt: as §1, §2
# [27] = tested on: Alyssum; assay: as above; format: in vivo; conditions: drenched with 250 ppm ABA, greenhouse, no irrigation
# Excerpt: as §1, §2
# [28] = drenched with 250 ppm ABA, greenhouse, no irrigation
substance,measurement,setting,value
"(S)-5-(1-hydroxy-2,6,6,-trimethyl-4-oxo-2-cyclohexen-1-yl)-3-methyl-(2Z,4E)-pentadienoic acid [ABA]",Transpiration rate,[1],reduces their transpiration rate
same,Transpiration,[2],reduced the transpiration
same,Market life extension (days of additional market life compared to control plants due to delayed wilting),[3],2.3 days
same,Market life extension (days of additional market life compared to control plants due to delayed wilting),[4],2.3 days
same,Market life extension (days of additional market life compared to control plants due to delayed wilting),[5],1.5 days
same,Market life extension (days of additional market life compared to control plants due to delayed wilting),[6],1.4 days
same,Market life extension (days of additional market life compared to control plants due to delayed wilting),[7],3.4 days
same,Market life extension (days of additional market life compared to control plants due to delayed wilting),[8],1.9 days
same,Market life extension (days of additional market life compared to control plants due to delayed wilting),[9],3.5 days
same,Market life extension (days of additional market life compared to control plants due to delayed wilting),[10],0 days
same,Market life extension (days of additional market life compared to control plants due to delayed wilting),[11],0 days
same,Market life extension (days of additional market life compared to control plants due to delayed wilting),[12],2.5 days
same,Market life extension (days of additional market life compared to control plants due to delayed wilting),[13],2.8 days
same,Market life extension (days of additional market life compared to control plants due to delayed wilting),[14],1.9 days
same,Market life extension (days of additional market life compared to control plants due to delayed wilting),[15],2.3 days
same,Market life extension (days of additional market life compared to control plants due to delayed wilting),[16],2.0 days
same,Drought tolerance of treated plants (in words),[17]; ABA application,much greater drought tolerance
same,Market life extension (days of additional market life compared to control plants due to delayed wilting),[17]; [28],3.3 days
same,Market life extension (days of additional market life compared to control plants due to delayed wilting),[18],1.6 days
same,Market life extension (days of additional market life compared to control plants due to delayed wilting),[19],2.0 days
same,Market life extension (days of additional market life compared to control plants due to delayed wilting),[20],2.0 days
same,Drought tolerance of treated plants (in words),[21]; ABA application,more drought tolerant
same,Market life extension (days of additional market life compared to control plants due to delayed wilting),[21]; [28],1.6 days
same,Market life extension (days of additional market life compared to control plants due to delayed wilting),[22],0 days
same,Drought tolerance of treated plants (in words),[23]; ABA application,more drought tolerant
same,Market life extension (days of additional market life compared to control plants due to delayed wilting),[23]; [28],2.5 days
same,Market life extension (days of additional market life compared to control plants due to delayed wilting),[24],2.4 days
same,Market life extension (days of additional market life compared to control plants due to delayed wilting),[25],3.3 days
same,Market life extension (days of additional market life compared to control plants due to delayed wilting),[26],0 days
same,Market life extension (days of additional market life compared to control plants due to delayed wilting),[27],0 days
